In general, IC50 refers to the concentration that inhibits the measured activity by half.

What all share (assay type): cell-based
Assay [1] deals with LP40-V13 pseudovirus (HIV-1 NL4-3 Env mutant). As to conditions: for IC50: LP40-V13 (Env selected at LP-40 200 µM), TZM-bl cells, 48 h, luciferase, mean ± SD, triplicate, repeated three times. The protocol: (§1) To simulate the sequence changes of viral resistance genes under different drug concentration pressures, we constructed the Env genes under different drug concentration pressures in the PCDNA3.1 vector and obtained a series of mutations. […] T20-V 6~12, T20-V 13~14, and T 20-V 15~18 were constructed at concentrations of 200 µM (P21), 400 µM (P24), and 2000 µM (P32), respectively. Similarly, the LP-40 pressure concentrations were 0.3 µM, 8 µM, 20 µM, and 200 µM, respectively, and the constructs were numbered LP40-V 1~5, LP40-V 6~8, LP40-V 9~11, and LP40-V 12~15. Resistance mutations will cause varying levels of damage to the function of the pseudoviral envelope proteins. Here, we explored how serial mutations affect the function of viral envelope proteins. Based on this problem, we performed a single round of quantitative P24-infection experiments, packaging the pseudovirus with a previously constructed series of mutant plasmids. We compared the invasion ability of the HIV-1 wild-type and mutant pseudoviruses toward target cells under the same P24 content (using the invasion capacity of each subtype as 100%).
(§2) The infectivity of HIV Env mutants and the inhibitory activities of membrane fusion inhibitors on mutants in TZM-bl cells were measured using a single-cycle infection assay as described previously. Briefly, the HIV pseudovirus was packed using an Env-coding plasmid, and pSG3ΔEnv was co-transfected into HEK293T cells. pSG3ΔEnv encodes an Env-defective, luciferase-expressing HIV-1 genome. After the pseudoviruses were harvested and filtrated, the amount of pseudoviruses was fixed via P24 antigen, and their infectivity was determined in TZM-bl cells. In order to measure the inhibitory activities of the inhibitors, inhibitors diluted serially 3-fold were mixed with an equal volume of pseudoviruses, and then 100 µL 1 × 10^5/mL TZM-bl cells were added to the mixture and incubated at 37 °C with 5% CO2 for 48 h. After that, TZM-bl cells were lysed using reporter lysis buffer, and IC50 values were calculated according to luciferase activity measured by luciferase assay reagents and a luminescence counter (Promega, Madison, WI, USA).

For assay [2], the system named is LP40-V11 pseudovirus (HIV-1 NL4-3 Env mutant). As to conditions: for IC50: LP40-V11 (Env selected at LP-40 20 µM), TZM-bl cells, 48 h, luciferase, mean ± SD, triplicate, repeated three times. The procedure: as §1, §2
Assay [3] deals with T20-V2 pseudovirus (HIV-1 NL4-3 Env mutant). As to conditions: for IC50: T20-V2 (Env selected at T20 12 µM, P9), TZM-bl cells, 48 h, luciferase, mean ± SD, triplicate, repeated three times. The protocol:
as §1, §2

For assay [4], the system named is T20-V7 pseudovirus (HIV-1 NL4-3 Env mutant). Conditions: for IC50: T20-V7 (Env selected at T20 200 µM, P21), TZM-bl cells, 48 h, luciferase, mean ± SD, triplicate, repeated three times. The protocol: as §1, §2
Assay [5] concerns T20-V15 pseudovirus (HIV-1 NL4-3 Env mutant). As to conditions: for IC50: T20-V15 (Env selected at T20 2000 µM, P32), TZM-bl cells, 48 h, luciferase, mean ± SD, triplicate, repeated three times. The protocol: as §1, §2
In assay [6] the test system is T20-V17 pseudovirus (HIV-1 NL4-3 Env mutant). Conditions: for IC50: T20-V17 (Env selected at T20 2000 µM, P32), TZM-bl cells, 48 h, luciferase, mean ± SD, triplicate, repeated three times. The procedure:
as §1, §2

In assay [7] the test system is T20-V3 pseudovirus (HIV-1 NL4-3 Env mutant). Conditions: for IC50: T20-V3 (Env selected at T20 12 µM, P9), TZM-bl cells, 48 h, luciferase, mean ± SD, triplicate, repeated three times. The procedure:
as §1, §2

For assay [8], the system named is LP40-V12 pseudovirus (HIV-1 NL4-3 Env mutant). Conditions: for IC50: LP40-V12 (Env selected at LP-40 200 µM), TZM-bl cells, 48 h, luciferase, mean ± SD, triplicate, repeated three times. The protocol:
as §1, §2

For assay [9], the system named is LP40-V1 pseudovirus (HIV-1 NL4-3 Env mutant). Conditions: for IC50: LP40-V1 (Env selected at LP-40 0.3 µM), TZM-bl cells, 48 h, luciferase, mean ± SD, triplicate, repeated three times. The procedure:
as §1, §2

Assay [10] has as its system LP40-V9 pseudovirus (HIV-1 NL4-3 Env mutant). Conditions: for IC50: LP40-V9 (Env selected at LP-40 20 µM), TZM-bl cells, 48 h, luciferase, mean ± SD, triplicate, repeated three times. The protocol:
as §1, §2

Assay [11] has as its system T20-V4 pseudovirus (HIV-1 NL4-3 Env mutant). As to conditions: for IC50: T20-V4 (Env selected at T20 12 µM, P9), TZM-bl cells, 48 h, luciferase, mean ± SD, triplicate, repeated three times. The protocol:
as §1, §2

Assay [12] relates to T20-V16 pseudovirus (HIV-1 NL4-3 Env mutant). As to conditions: for IC50: T20-V16 (Env selected at T20 2000 µM, P32), TZM-bl cells, 48 h, luciferase, mean ± SD, triplicate, repeated three times. The protocol:
as §1, §2

Assay [13] deals with T20-V8 pseudovirus (HIV-1 NL4-3 Env mutant). Conditions: T20-V8 (Env selected at T20 200 µM, P21); TZM-bl cells, 48 h, luciferase; mean ± SD, triplicate, repeated three times. The protocol:
as §1, §2

Assay [14] relates to LP40-V10 pseudovirus (HIV-1 NL4-3 Env mutant). As to conditions: for IC50: LP40-V10 (Env selected at LP-40 20 µM), TZM-bl cells, 48 h, luciferase, mean ± SD, triplicate, repeated three times. The protocol:
as §1, §2

The subject of assay [15] is T20-V18 pseudovirus (HIV-1 NL4-3 Env mutant). Conditions: for IC50: T20-V18 (Env selected at T20 2000 µM, P32), TZM-bl cells, 48 h, luciferase, mean ± SD, triplicate, repeated three times. The procedure:
as §1, §2

Where a SMILES comes first, the peptide text is derived from it. The star is where a group is joined. Palmitoyl = CCCCCCCCCCCCCCCC(=O)* A value given as a limit tells only on which side of the number the result lay.

With `CCCCCCCCCCCCCCCC(=O)NCCCC[C@H](NC(=O)[C@H](CC(=O)O)NC(=O)[C@H](CC(C)C)NC(=O)[C@H](CCC(=O)O)NC(=O)[C@H](CC(C)C)NC(=O)[C@H](CC(C)C)NC(=O)[C@H](CCC(=O)O)NC(=O)[C@H](CCC(N)=O)NC(=O)[C@H](CCC(=O)O)NC(=O)[C@H](CC(N)=O)NC(=O)[C@H](CCCCN)NC(=O)[C@H](CCC(=O)O)NC(=O)[C@H](CCC(N)=O)NC(=O)[C@H](CCC(N)=O)NC(=O)[C@H](CC(N)=O)NC(=O)[C@H](CCC(N)=O)NC(=O)[C@H](CO)NC(=O)[C@H](CCC(=O)O)NC(=O)[C@H](CCC(=O)O)NC(=O)[C@@H](NC(=O)[C@H](CC(C)C)NC(=O)[C@H](CO)NC(=O)[C@H](Cc1c[nH]cn1)NC(=O)[C@@H](NC(=O)[C@H](CC(C)C)NC(=O)[C@H](CO)NC(=O)[C@@H](NC(=O)[C@H](Cc1ccc(O)cc1)NC(C)=O)[C@@H](C)O)[C@@H](C)CC)[C@@H](C)CC)C(N)=O` [LP-40] (Ac-YTSLIHSLIEESQNQQEKNEQELLELDK(Palmitoyl)-NH2), the IC50 is above 6250 nM in assay [1]; 3330 ± 978 nM in [2]; 59.2 ± 15.9 nM in [3]; 2730 ± 212 nM in assay [4]; above 6250 nM in [5]; 5170 ± 1020 nM in assay [6]. Also, the IC50 is 70.5 ± 8.56 nM in [7]; above 6250 nM in assay [8]; 44.9 ± 4.39 nM in [9]; 2890 ± 431 nM in assay [10]; 76.6 ± 19.7 nM in [11]; above 6250 nM in assay [12]. The figures for the IC50 in [13], in assay [14] and in assay [15] were above 6250 nM, 2750 ± 634 nM and above 6250 nM, respectively. Also, the “Fold change in IC50” value in [1] (LP40-V13 relative to WT NL4-3, Table 1) was above 227.43 fold; in [2] (LP40-V11 relative to WT NL4-3, Table 1), 112.32 fold; in [3] (T20-V2 relative to WT NL4-3, Table 1), 2.00 fold; in assay [4] (T20-V7 relative to WT NL4-3, Table 1) it was 91.82 fold; in assay [5] (T20-V15 relative to WT NL4-3, Table 1), above 227.43 fold; in assay [6] (T20-V17 relative to WT NL4-3, Table 1), 174.12 fold. Besides, the “Fold change in IC50” value in [7] (T20-V3 relative to WT NL4-3, Table 1) is reported as 2.38 fold; in assay [8] (LP40-V12 relative to WT NL4-3, Table 1), above 227.43 fold; in assay [9] (LP40-V1 relative to WT NL4-3, Table 1), 1.51 fold; in assay [10] (LP40-V9 relative to WT NL4-3, Table 1), 97.22 fold; in [11] (T20-V4 relative to WT NL4-3, Table 1), 2.58 fold; in assay [12] (T20-V16 relative to WT NL4-3, Table 1) it was above 227.43 fold. Moreover, the “Fold change in IC50” value in assay [14] (LP40-V10 relative to WT NL4-3, Table 1) was 92.52 fold; in [15] (T20-V18 relative to WT NL4-3, Table 1), above 227.43 fold.

With Enfuvirtide, the IC50 is 5170 ± 2460 nM in [1]; 4350 ± 522 nM in [2]; 147 ± 39.4 nM in assay [3]; 2810 ± 458 nM in assay [4]; 2090 ± 248 nM in assay [5]; 2890 ± 882 nM in [6]. Also, the half-inhibitory concentration (IC50) worked out at 78.9 ± 12.1 nM in assay [7]; 5870 ± 978 nM in assay [8]; 59.8 ± 16.3 nM in assay [9]; 1270 ± 315 nM in [10]; 53.1 ± 14.9 nM in assay [11]; 1740 ± 229 nM in [12]. Moreover, the IC50 in assay [13] amounted to 5280 ± 1100 nM; in assay [14], 1260 ± 264 nM; in assay [15], 6150 ± 475 nM.

For the origin of these results see publication PMC9223764, “In Vitro Selection and Characterization of HIV-1 Variants with Increased Resistance to LP-40, Enfuvirtide-Based Lipopeptide Inhibitor” (International Journal of Molecular Sciences, 2022).
